The conditions of data set [1]: cited from earlier work.
A short description of data set [2]: Cyclic voltammetry in 1 M NaOH. The settings on record: scan rate 100 mV/sec, 8.5 mM. The class given is physicochemical. The method, then:
Electrochemical Methods: Cyclic voltammetry experiments were performed with a CH Instruments model 660C potentiostat using a glassy carbon working electrode, a platinum wire counter electrode, and a Ag/AgCl reference electrode.
[…]. This potential exceeds all other aqueous organic flow battery systems reported to date, which, combining the high effective electron concentration resulted from high solubility, leads to high theoretical energy densities.

Data set [3] can be described thus: Solubility limit in 1 M NaOH. The note with it: aqueous buffer. The class given is physicochemical. From the text:
In one embodiment, the phenazine derivative is present in the electrolyte at a concentration within a range of 0.01 M to 4 M. In an independent embodiment, the phenazine derivative is present in the electrolyte at a concentration within a range of from 4 M to 8 M. Certain embodiments of the phenazine derivatives provide 2 moles of electron transfer per mole of the compound, thus providing, for example, 2 M electron transfer when the phenazine derivative concentration is 1 M.

≈ marks a conversion by molar mass, not a printed value.

Take `c1ccc2nc3ccccc3nc2c1` [phenazine]: the solubility in water result in data set [1] was “insoluble in water”.

`O=S(=O)(O)c1ccc2nc3cc(O)c(O)cc3nc2c1` [DHPS, 7,8-dihydroxy-phenazine-2-sulfonic acid]: the “redox couple (vs. Ag/AgCl)” value in data set [2] is reported as −1.08 V. The same compound returned a solubility in data set [3] of 1450 mM (≈ 424 mg/mL).

The solubility is the concentration that dissolves in the medium under given conditions. Higher therefore signals a readily soluble substance.

Values taken from patent US10454124B2, “Highly stable phenazine derivatives for aqueous redox flow batteries” (Battelle Memorial Institute, priority 2017, dated 2019).
